Source: patent publication US20030219400A1 (priority 2002, published 2003)

Assays:
PLDS patients = type: in vivo, human
Procedure: An orally administered checklist monitored symptoms; sequential VCS testing was performed. […] No antibiotics or other therapeutic interventions were administered during the study. Diagnostic parameters used by referring physicians included a history of erythema chronicum migrans (ECM) rash, ELISA assay, Borrelia burgdorferi Western blot, LUAT assay, PCR, CSF antibodies to B. burgdorferi and culture. Patients with a clinical diagnosis of PLDS but without a positive serologic test were included at the discretion of the attending physician.

[1] = test system: macrophage release of pro-inflammatory cytokines, including TNF and IL1B; details: intraventricular instillation; cited from earlier work
SBS patients = details: human, in vivo

CCc1ccc(CCOc2ccc(CC3SC(=O)NC3=O)cc2)nc1 (stereo not shown) [pioglitazone]
adverse effects from pioglitazone, including hypoglycemia or abnormal liver function tests (PLDS patients; 45 mg daily for 10 days): No patients had adverse effects | patients with significant intensification of symptoms, not severe enough to stop treatment (PLDS patients; of 241 patients receiving pioglitazone, CSM added on day 6): 5 patients

Ser-Tyr-Ser-Met-Glu-His-Phe-Arg-Trp-Gly-Lys-Pro-Val [αMSH]
macrophage release of pro-inflammatory cytokines, including TNF and IL1B [1]: down-regulation of macrophage release of pro-inflammatory cytokines

cholestyramine [CSM]
other complications of therapy (SBS patients): No other significant complications of therapy were noted
